Results: patent US9771372B2, “Compounds useful as S100-inhibitors” (Active Biotech AB, priority 2014, dated 2017)
pIC50: −log10 of the molar value.

Molecular target: T1, interaction between biotinylated human S100A9 and human RAGE-Fc (Homo sapiens, UniProt P06702)
T1 construct: made in house; host or cells: E. coli BL21(DE3)/pET1120 (pLR757)
T1 sequence (P06702 1-114): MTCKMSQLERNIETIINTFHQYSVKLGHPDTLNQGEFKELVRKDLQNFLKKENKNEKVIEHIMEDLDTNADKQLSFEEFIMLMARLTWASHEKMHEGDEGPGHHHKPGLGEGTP
Assay: AlphaScreen inhibition assay, Biot-hS100A9:hRAGE-Fc (S100A9-RAGE inhibition assay)
Format: binding
Conditions: biot-hS100A9 and rhRAGE-Fc, Ca2+ and Zn2+ in buffer
Outline: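 Biotinylated human S100A9, in HBS-P with CaCl2 and ZnCl2, preincubated 1 h at room temperature in the dark with compound (final DMSO ≤1.25%), then combined with rhRAGE-Fc on protein A Acceptor beads plus streptavidin Donor beads (20 μg/mL each). Protein levels batch-dependent; percent inhibition from AlphaScreen signal vs DMSO-only control.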

First: O=C(CCC1CCCC1)NC1(C(F)(F)F)C(=O)Nc2nc3c(C(=O)O)cccc3n21 (stereo not drawn) [Example 160, 3-(3-cyclopentylpropanamido)-4-oxo-3-(trifluoromethyl)-2,5,7-triazatricyclo[6.4.0.0^2,6]dodeca-1(12),6,8,10-tetraene-9-carboxylic acid]
Second: CC(=O)c1cccc2c1nc1n2C(NC(=O)CCC2CCCC2)(C(F)(F)F)C(=O)N1 (stereo not drawn) [Example 122, N-[9-acetyl-4-oxo-3-(trifluoromethyl)-2,5,7-triazatricyclo[6.4.0.0^2,6]dodeca-1(12),6,8,10-tetraen-3-yl]-3-cyclopentylpropanamide]
The pIC50 of the first is 0.31 log units higher: 6.13 for the first, 5.82 for the second.

Compared with O=C(CC1CCCCC1)NC1(C(F)(F)F)C(=O)Nc2nc3cc(F)c(F)cc3n21 (stereo not drawn) [Example 74, 2-cyclohexyl-N-[10,11-difluoro-4-oxo-3-(trifluoromethyl)-2,5,7-triazatricyclo[6.4.0.0^2,6]-dodeca-1(8),6,9,11-tetraen-3-yl]acetamide], O=C(NC1(C(F)(F)F)C(=O)Nc2nc3cc(Cl)c(Cl)cc3n21)C1CCCCC1 (stereo not drawn) [Example 55, N-[10,11-dichloro-4-oxo-3-(trifluoromethyl)-2,5,7-triazatricyclo[6.4.0.0^2,6]dodeca-1(12),6,8,10-tetraen-3-yl]cyclohexanecarboxamide] is 0.33 log units higher in pIC50: 5.44 for the first, 5.77 for the second.

Going from O=C(CCC1CCCC1)NC1(C(F)(F)F)C(=O)Nc2nc3c(C(=O)O)cccc3n21 (single isomer, unassigned) [Example 231b, 3-(3-cyclopentylpropanamido)-4-oxo-3-(trifluoromethyl)-2,5,7-triazatricyclo[6.4.0.0^2,6]dodeca-1(12),6,8,10-tetraene-9-carboxylic acid] to CS(=O)(=O)NC(=O)c1cccc2c1nc1n2C(NC(=O)CCC2CCCC2)(C(F)(F)F)C(=O)N1 (stereo not drawn) [Example 166, 3-(3-cyclopentylpropanamido)-N-methanesulfonyl-4-oxo-3-(trifluoromethyl)-2,5,7-triazatricyclo[6.4.0.0^2,6]dodeca-1(12),6,8,10-tetraene-9-carboxamide], the pIC50 rises from 6.08 to 6.40 (0.32 log units).

First: N#Cc1cccc(C(=O)NC2(C(F)(F)F)C(=O)Nc3nc4cc(Cl)c(Cl)cc4n32)c1 (stereo not drawn) [Example 100, 3-cyano-N-[10,11-dichloro-4-oxo-3-(trifluoromethyl)-2,5,7-triazatricyclo[6.4.0.0^2,6]dodeca-1(8),6,9,11-tetraen-3-yl]benzamide]
Second: O=C(NC1(C(F)(F)F)C(=O)Nc2nc3cc(Cl)c(Cl)cc3n21)c1ccccc1 (stereo not drawn) [Example 38, N-[10,11-dichloro-4-oxo-3-(trifluoromethyl)-2,5,7-triazatricyclo[6.4.0.0^2,6]dodeca-1(8),6,9,11-tetraen-3-yl]benzamide]
The pIC50 of the first is 0.31 log units lower: 5.69 for the first, 6.00 for the second.

O=C(CN1CCOCC1)NC1(C(F)(F)F)C(=O)Nc2nc3cc(Cl)c(Cl)cc3n21 (stereo not drawn) [Example 60, N-[10,11-dichloro-4-oxo-3-(trifluoromethyl)-2,5,7-triazatricyclo[6.4.0.0^2,6]dodeca-1(12),6,8,10-tetraen-3-yl]-2-(morpholin-4-yl)acetamide] and O=C(CCN1CC(F)(F)C1)NC1(C(F)(F)F)C(=O)Nc2nc3cc(Cl)c(Cl)cc3n21 (stereo not drawn) [Example 104, N-[10,11-dichloro-4-oxo-3-(trifluoromethyl)-2,5,7-triazatricyclo[6.4.0.0^2,6]dodeca-1(8),6,9,11-tetraen-3-yl]-3-(3,3-difluoroazetidin-1-yl)propanamide] are the same in pIC50: 5.40 for the first, 5.40 for the second.

Going from O=C(CCC1CCCC1)NC1(C(F)(F)F)C(=O)Nc2nc3c(-c4ccc(Cl)cc4)cccc3n21 (stereo not drawn) [Example 201, N-[9-(4-chlorophenyl)-4-oxo-3-(trifluoromethyl)-2,5,7-triazatricyclo[6.4.0.0^2,6]dodeca-1(12),6,8,10-tetraen-3-yl]-3-cyclopentylpropanamide] to Cc1cccc2c1nc1n2C(NC(=O)CCC2CCCC2)(C(F)(F)F)C(=O)N1 (stereo not drawn) [Example 81, 3-cyclopentyl-N-[9-methyl-4-oxo-3-(trifluoromethyl)-2,5,7-triazatricyclo[6.4.0.0^2,6]dodeca-1(12),6,8,10-tetraen-3-yl]propanamide], the pIC50 falls from 6.07 to 5.25 (0.82 log units).

Compared with CCNc1cccc(C(=O)NC2(C(F)(F)F)C(=O)Nc3nc4cc(Cl)c(Cl)cc4n32)n1 (stereo not drawn) [Example 70, N-[10,11-dichloro-4-oxo-3-(trifluoromethyl)-2,5,7-triazatricyclo[6.4.0.0^2,6]dodeca-1(12),6,8,10-tetraen-3-yl]-6-(ethylamino)pyridine-2-carboxamide], COCCNc1cccc(C(=O)NC2(C(F)(F)F)C(=O)Nc3nc4cc(Cl)c(Cl)cc4n32)n1 (stereo not drawn) [Example 71, N-[10,11-dichloro-4-oxo-3-(trifluoromethyl)-2,5,7-triazatricyclo[6.4.0.0^2,6]dodeca-1(12),6,8,10-tetraen-3-yl]-6-[(2-methoxyethyl)amino]pyridine-2-carboxamide] is 0.81 log units higher in pIC50: 5.89 for the first, 6.70 for the second.

First: O=C(NC1(C(F)(F)F)C(=O)Nc2nc3cc(Cl)c(Cl)cc3n21)c1cccc(NC2CCCCC2)n1 (stereo not drawn) [Example 66, 6-(cyclohexylamino)-N-[10,11-dichloro-4-oxo-3-(trifluoromethyl)-2,5,7-triazatricyclo-[6.4.0.0^2,6]dodeca-1(12),6,8,10-tetraen-3-yl]pyridine-2-carboxamide]
Second: CCNc1cccc(C(=O)NC2(C(F)(F)F)C(=O)Nc3nc4cc(C)c(C)cc4n32)n1 (stereo not drawn) [Example 67, N-[10,11-dimethyl-4-oxo-3-(trifluoromethyl)-2,5,7-triazatricyclo[6.4.0.0^2,6]dodeca-1(12),6,8,10-tetraen-3-yl]-6-(ethylamino)pyridine-2-carboxamide]
The pIC50 of the first is 0.70 log units higher: 6.40 for the first, 5.70 for the second.

First: O=C(NC1(C(F)(F)F)C(=O)Nc2nc3cc(Cl)c(Cl)cc3n21)C1CCN(C(=O)CC(F)(F)F)CC1 (stereo not drawn) [Example 46, N-[10,11-dichloro-4-oxo-3-(trifluoromethyl)-2,5,7-triazatricyclo[6.4.0.0^2,6]dodeca-1(12),6,8,10-tetraen-3-yl]-1-(3,3,3-trifluoropropanoyl)piperidine-4-carboxamide]
Second: O=C(CCC1CCCC1)NC1(C(F)(F)F)C(=O)Nc2nc3c(C(=O)O)cccc3n21 (single isomer, unassigned) [Example 231a, 3-(3-cyclopentylpropanamido)-4-oxo-3-(trifluoromethyl)-2,5,7-triazatricyclo[6.4.0.0^2,6]dodeca-1(12),6,8,10-tetraene-9-carboxylic acid]
The pIC50 of the first is 0.76 log units lower: 5.42 for the first, 6.18 for the second. The second is the more potent here.

COCCNc1nc(C(=O)NC2(C(F)(F)F)C(=O)Nc3nc4cc(C)c(C)cc4n32)cs1 (stereo not drawn) [Example 119, N-[10,11-dimethyl-4-oxo-3-(trifluoromethyl)-2,5,7-triazatricyclo[6.4.0.0^2,6]dodeca-1(8),6,9,11-tetraen-3-yl]-2-[(2-methoxyethyl)amino]-1,3-thiazole-4-carboxamide] and COCCNc1cccc(C(=O)NC2(C(F)(F)F)C(=O)Nc3nc4cc(C)c(C)cc4n32)n1 (stereo not drawn) [Example 111, N-[10,11-dimethyl-4-oxo-3-(trifluoromethyl)-2,5,7-triazatricyclo[6.4.0.0^2,6]dodeca-1(8),6,9,11-tetraen-3-yl]-6-[(2-methoxyethyl)amino]pyridine-2-carboxamide] are within 0.2 log units of each other in pIC50: 5.74 for the first, 5.79 for the second.

With Cc1cc2nc3n(c2cc1C)C(NC(=O)[C@H](C)OCC1CCCC1)(C(F)(F)F)C(=O)N3 (single isomer, unassigned) [Example 215a] the pIC50 was 5.84.
